# Assay results from patent publication US10821091B2, “Retinoid compositions and methods of increasing immune cell-mediated killing of IDH mutant cancer cells” (UNIVERSITY OF PITTSBURGH—OF THE COMMONWEALTH SYSTEM OF …, priority 2017, dated 2020).
# Experiments:
# [1] = mouse, in vivo
# Protocol: Mice. 6-8 week old Balb/c nude mice (CAnN.Cg-Foxn1nu/Crl) were purchased from Charles River Laboratories. Mice were injected with 10^6 IDH WT or mutant primary glioma cells sub-cutaneously in the right flank. When the tumors were about 25 mm^2, ATRA treatment was started. 10 mg/Kg ATRA was administered to mice intra-peritoneally (i.p.) every alternate day until termination of the experiment. DMSO-treated mice were used as controls. The mice were monitored for signs of drug toxicity such as weight-loss, lethargy, skin lesions and diarrhea. The tumors were measured every 3 days, and the mice were sacrificed when the tumors were about 400 mm^2. For NK depletion experiments, 6-week old B6 nude mice (B6.Cg-Foxn1nu/J) were purchased from The Jackson Laboratory. NK depletion was performed by injecting mice with 200 μg of anti-NK1.1 antibody (Biolegend) i.p. on the day ATRA treatment was started. Mice injected with 200 μg of an isotype antibody were used as controls. Mice were bled and evaluated for circulating NKs by flow cytometry.
# Retinoic acid has been used as a chemotherapeutic agent in a wide variety of cancers, in pre-clinical as well as clinical applications. 13-cis-RA is the most common form of RA used in clinics, and is effective in a variety of neoplasms. Therefore, the efficacy of 13-cis RA was compared with ATRA and Bexarotene (a synthetic retinoic acid analogue) in IDH mutant gliomas.
# [2] = tested on: RBP1-transduced IDH mutant cells; assay: RBP1 overexpression with retinol: NK cytotoxicity and gene expression; format: cell-based, human
# Protocol: For RBP1 overexpression studies, IDH mutant glioma cells were transduced with RBP1 expressing lentiviral vectors (Origene Inc) for 3 hours. The cells were maintained in CM containing 10 μg/ml Puromycin to select for lentivirus-transduced cells. Cells transduced with a mock lentiviral vector were used as controls.
# NK cytotoxicity assay. The flow cytometric CFSE/7-AAD cytotoxicity assay was performed as previously described with slight modifications. Astrocytes or Glioma cells (5×10^5) were labeled with 500 nM CFSE (from a 1 mM stock solution in dimethyl sulfoxide [Sigma] stored at −20° C.) in PBS for 15 min at 37° C. The cells were then washed twice in complete medium and used immediately for the cytotoxicity assay. The CFSE-labeled target cells (25,000 cells) were used at E (effector):T (target) ratios of 1:10. After 6 h incubation, the cells were stained with 0.25 μg/ml of 7-AAD and analyzed by flow cytometry.
# Quantitative Real time RT-PCR. 5×10^5 IDH mutant and WT astrocytes, as well as patient glioma cells were lyzed in Trizol and RNA was extracted from the cells using the Chloroform extraction method. cDNA was transcribed from the RNA using iScript cDNA synthesis kit (BioRad). Real-time PCR was performed on an CFX96 Touch™ Real-Time PCR Detection System (Bio-Rad) equipped with a 96-well reaction plate. Briefly, 2 μL cDNA was added to 5 μL of the 2×SYBR Green PCR mastermix (Thermo Scientific), 800 nM of each primer, and water was added to 10 μL. The thermal denaturation protocol was run at the end of the PCR to determine the number of products that were present in the reaction. Reactions were typically run in triplicates. The cycle number at which the reaction crossed an arbitrarily-placed threshold (CT) was determined for each gene and the relative amount of each gene to 18 S rRNA was described using the equation 2^−ΔCT where ΔCT=(CTtargetRNA−CT18S rRNA).
# RBP1 overexpression reverses immune evasion in IDH mutant gliomas. […] Cells were analyzed for NK cytotoxicity and gene expression of RA pathway genes. […]
# [3] = retinol added to RBP1-transduced IDH mutant cells, to wild type expression levels
SMILES,toxicity in treated mice (weight loss and wasting) [1],recognition and killing by NK cells ([2]; 10 μM retinol in medium of RBP1-transduced IDH mutant cells),"expression of NKG2D ligands (ULBP1, ULBP3) [2, 3]","expression of RA pathway genes [2, 3]"
C=C(c1ccc(C(=O)O)cc1)c1cc2c(cc1C)C(C)(C)CCC2(C)C [Bexarotene],Higher levels of toxicity,–,–,–
"CC1=C(/C=C/C(C)=C/C=C/C(C)=C\C(=O)O)C(C)(C)CCC1 [13-cis RA, 13-cis retinoic acid]",Higher levels of toxicity,–,–,–
CC1=C(/C=C/C(C)=C/C=C/C(C)=C/CO)C(C)(C)CCC1 [retinol],–,significantly increased recognition and killing by NK cells,restored expression,restored expression
